In assay [1] the target is NAMPT (Homo sapiens (Human), UniProt P43490). The assay can be described thus: NAMPT biochemical inhibition assay (NMN quantified by mass spectrometry). The following applies: NAMPT biochemical inhibition; read-out: Biochem IC50.
Assay [2] deals with A2780 cells. The assay can be described thus: In-vitro cell proliferation assay (SRB), A2780 cells.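 Further: viable cell number read as SRB absorbance, background from media-only wells subtracted, IC50 interpolated from percent inhibition at two bracketing compound concentrations.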 The class given is cell-based. To be noted: A2780 cells, 72 hours, SRB, read-out: A2780 IC50.

The structures appear in SMILES notation. Where two headings read alike, the source gives them in different places.

Sequence of NAMPT (P43490 whole entry): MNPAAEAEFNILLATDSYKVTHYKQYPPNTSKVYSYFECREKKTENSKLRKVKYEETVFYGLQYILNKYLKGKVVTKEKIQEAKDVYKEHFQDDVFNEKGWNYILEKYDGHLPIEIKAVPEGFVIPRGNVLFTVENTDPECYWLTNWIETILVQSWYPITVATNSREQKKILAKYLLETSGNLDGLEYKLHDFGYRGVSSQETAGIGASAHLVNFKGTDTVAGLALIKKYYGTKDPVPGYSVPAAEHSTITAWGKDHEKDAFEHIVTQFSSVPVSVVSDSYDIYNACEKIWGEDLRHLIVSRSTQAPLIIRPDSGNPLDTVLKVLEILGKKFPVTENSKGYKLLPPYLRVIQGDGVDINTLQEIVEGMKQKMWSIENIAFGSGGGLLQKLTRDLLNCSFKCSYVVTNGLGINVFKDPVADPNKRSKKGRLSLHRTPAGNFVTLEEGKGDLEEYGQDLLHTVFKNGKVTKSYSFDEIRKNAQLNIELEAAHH

Consider `CCN(C1CCCCC1)S(=O)(=O)c1ccc(NC(=O)NCc2cccnc2)cc1` [3-{4-[cyclohexyl(ethyl)sulfamoyl]phenyl}-1-(pyridin-3-ylmethyl)urea], for which the concentration for half-maximal inhibition (IC50) (commonly the midpoint of a concentration-inhibition curve) in assay [1] was 5 nM; in assay [2] (Homo sapiens, A2780, 72 h), 123 nM.

`CN(C)C(=O)c1ccc(S(=O)(=O)c2ccc(NC(=O)NCc3cccnc3)cc2)cc1` [N,N-dimethyl-4-[(4-{[(pyridin-3-ylmethyl)carbamoyl]amino}benzene)sulfonyl]benzamide]: the half-maximal inhibitory concentration (IC50) is 5 nM in assay [1] and 53 nM in assay [2] (Homo sapiens, A2780, 72 h).

On to `O=C(NCc1cccnc1)Nc1ccc(S(=O)(=O)c2ccc(N3CCOCC3)cc2)cc1` [1-(4-{[4-(morpholin-4-yl)benzene]sulfonyl}phenyl)-3-(pyridin-3-ylmethyl)urea], for which the IC50 in assay [1] was found to be 1.8 nM; in assay [2] (Homo sapiens, A2780, 72 h) it was 14.7 nM.

As to `O=C(NCc1ccc2nccn2c1)c1ccc(S(=O)(=O)c2cccc(C(F)(F)F)c2)cc1` [N-{imidazo[1,2-a]pyridin-6-ylmethyl}-4-{[3-(trifluoromethyl)benzene]sulfonyl}benzamide], the IC50 was found to be 7.03 nM in assay [1] and 4.33 nM in assay [2] (Homo sapiens, A2780, 72 h).

For `Cc1ccc(S(=O)(=O)c2ccc(NC(=O)NCc3cccnc3)cc2)cc1Cl` [3-{4-[(3-chloro-4-methylbenzene)sulfonyl]phenyl}-1-(pyridin-3-ylmethyl)urea], the half-maximal inhibitory concentration (IC50) in assay [1] was 0.9 nM; in assay [2] (Homo sapiens, A2780, 72 h) it was 100 to 1000 nM.

On to `O=C(NCc1ccc2nccn2c1)Nc1ccc(S(=O)(=O)N2CC3CCC(C2)O3)cc1` [3-{imidazo[1,2-a]pyridin-6-ylmethyl}-1-(4-{8-oxa-3-azabicyclo[3.2.1]octane-3-sulfonyl}phenyl)urea], for which the half-maximal inhibitory concentration (IC50) in assay [1] came out at 8 nM; in assay [2] (Homo sapiens, A2780, 72 h) it was 6 nM.

Consider `O=C(NCc1cccnc1)Nc1ccc(S(=O)(=O)C(F)(F)F)cc1` [1-(pyridin-3-ylmethyl)-3-[4-(trifluoromethane)sulfonylphenyl]urea], for which the concentration for half-maximal inhibition (IC50) in assay [1] came to 226 nM; in assay [2] (Homo sapiens, A2780, 72 h), 10000 nM.

In the case of `O=C(NCc1cccnc1)Nc1ccc(S(=O)(=O)Nc2cccnc2Oc2ccc(F)cc2)cc1` [3-(4-{[2-(4-fluorophenoxy)pyridin-3-yl]sulfamoyl}phenyl)-1-(pyridin-3-ylmethyl)urea], the IC50 in assay [1] is 11 nM; in assay [2] (Homo sapiens, A2780, 72 h), 149 nM.

With `O=C(NCc1cccnc1)Nc1ccc(S(=O)(=O)c2cccc3c2OCC3)cc1` [1-[4-(2,3-dihydro-1-benzofuran-7-sulfonyl)phenyl]-3-(pyridin-3-ylmethyl)urea], the IC50 in assay [1] came out at 1.1 nM; in assay [2] (Homo sapiens, A2780, 72 h), 10.5 nM.

In the case of `CC(C)(NS(=O)(=O)c1ccc(NC(=O)NCc2cccnc2)cc1)c1ccccc1` [3-{4-[(2-phenylpropan-2-yl)sulfamoyl]phenyl}-1-(pyridin-3-ylmethyl)urea], the IC50 in assay [1] was 5 nM; in assay [2] (Homo sapiens, A2780, 72 h), 39 nM.

`O=C(NCc1cccnc1)Nc1ccc(S(=O)(=O)c2ccccc2Oc2ccccc2)cc1` [1-{4-[(2-phenoxybenzene)sulfonyl]phenyl}-3-(pyridin-3-ylmethyl)urea]: the IC50 in assay [1] is 2 nM; in assay [2] (Homo sapiens, A2780, 72 h) it was 8 nM.

On to `COc1cc(NS(=O)(=O)c2ccc(NC(=O)NCc3cccnc3)cc2)ccc1C` [3-{4-[(3-methoxy-4-methylphenyl)sulfamoyl]phenyl}-1-(pyridin-3-ylmethyl)urea], for which the concentration for half-maximal inhibition (IC50) in assay [1] worked out at 4 nM; in assay [2] (Homo sapiens, A2780, 72 h), 148 nM.

Turning to `CS(=O)(=O)c1cccc(S(=O)(=O)c2ccc(NC(=O)NCc3cccnc3)cc2)c1` [3-{4-[(3-methanesulfonylbenzene)sulfonyl]phenyl}-1-(pyridin-3-ylmethyl)urea], the IC50 is 6.6 nM in assay [1] and 100 to 1000 nM in assay [2] (Homo sapiens, A2780, 72 h).

Consider `Cn1ncc2ccc(S(=O)(=O)c3ccc(NC(=O)NCc4cccnc4)cc3)cc21` [3-[4-(1-methyl-1H-indazole-6-sulfonyl)phenyl]-1-(pyridin-3-ylmethyl)urea], for which the half-maximal inhibitory concentration (IC50) came to 2.5 nM in assay [1] and 35.4 nM in assay [2] (Homo sapiens, A2780, 72 h).

Take `CCOc1ccccc1N1CCN(S(=O)(=O)c2ccc(NC(=O)NCc3cccnc3)cc2)CC1` [3-{4-[4-(2-ethoxyphenyl)piperazine-1-sulfonyl]phenyl]-1-(pyridin-3-ylmethyl)urea]: the IC50 turned out to be 2 nM in assay [1] and 6 nM in assay [2] (Homo sapiens, A2780, 72 h).

Consider `Cc1ccc(NS(=O)(=O)c2ccc(NC(=O)NCc3cccnc3)cc2)cc1C` [3-{4-[(3,4-dimethylphenyl)sulfamoyl]phenyl}-1-(pyridin-3-ylmethyl)urea], for which the IC50 turned out to be 3 nM in assay [1] and 93 nM in assay [2] (Homo sapiens, A2780, 72 h).

`O=C(NCc1cccnc1)Nc1ccc(S(=O)(=O)N2CCC(C(=O)c3ccc(F)cc3)CC2)cc1` [3-(4-{4-[(4-fluorophenyl)carbonyl]piperidine-1-sulfonyl}phenyl)-1-(pyridin-3-ylmethyl)urea]: the IC50 in assay [1] turned out to be 10 nM; in assay [2] (Homo sapiens, A2780, 72 h), 206 nM.

Take `COc1ccc(OC)c(NS(=O)(=O)c2ccc(NC(=O)NCc3cccnc3)cc2)c1` [3-{4-[(2,5-dimethoxyphenyl)sulfamoyl]phenyl}-1-(pyridin-3-ylmethyl)urea]: the 50% inhibitory concentration (IC50) was 1.2 nM in assay [1] and 4 nM in assay [2] (Homo sapiens, A2780, 72 h).

Turning to `COc1ccc(C)cc1NS(=O)(=O)c1ccc(NC(=O)NCc2cccnc2)cc1` [3-{4-[(2-methoxy-5-methylphenyl)sulfamoyl]phenyl}-1-(pyridin-3-ylmethyl)urea], the IC50 in assay [1] was 2 nM; in assay [2] (Homo sapiens, A2780, 72 h) it was 2 nM.

Turning to `O=C(NCc1cccnc1)Nc1ccc(S(=O)(=O)c2cccc3cc[nH]c23)cc1` [1-[4-(1H-indole-7-sulfonyl)phenyl]-3-(pyridin-3-ylmethyl)urea], the IC50 amounted to 0.5 nM in assay [1] and 3.4 nM in assay [2] (Homo sapiens, A2780, 72 h).

As for `O=C(NCc1cccnc1)Nc1ccc(S(=O)(=O)c2ccccc2Cl)cc1` [3-{4-[(2-chlorobenzene)sulfonyl]phenyl}-1-(pyridin-3-ylmethyl)urea], the IC50 in assay [1] is 5 nM; in assay [2] (Homo sapiens, A2780, 72 h), 475 nM.

As to `O=C(NCc1cccnc1)Nc1ccc(S(=O)(=O)c2ccccc2CN2CCOCC2)cc1` [1-(4-{[2-(morpholin-4-ylmethyl)benzene]sulfonyl}phenyl)-3-(pyridin-3-ylmethyl)urea], the IC50 was 3.6 nM in assay [1] and 7.9 nM in assay [2] (Homo sapiens, A2780, 72 h).

As for `O=C(NCc1cccnc1)Nc1ccc(S(=O)(=O)c2cc(Cl)ccc2Cl)cc1` [3-{4-[(2,5-dichlorobenzene)sulfonyl]phenyl}-1-(pyridin-3-ylmethyl)urea], the 50% inhibitory concentration (IC50) in assay [1] amounted to 6 nM; in assay [2] (Homo sapiens, A2780, 72 h) it was 652 nM.

For the molecule `O=C(NCc1cccnc1)Nc1ccc(S(=O)(=O)c2cccc3c2Oc2ccccc2S3)cc1` [1-[4-(phenoxathiine-4-sulfonyl)phenyl]-3-(pyridin-3-ylmethyl)urea], the concentration for half-maximal inhibition (IC50) in assay [1] was found to be 2.9 nM; in assay [2] (Homo sapiens, A2780, 72 h) it was 1.8 nM.

With `CCOc1cc(S(=O)(=O)c2ccc(NC(=O)NCc3cccnc3)cc2)ccc1F` [3-{4-[(3-ethoxy-4-fluorobenzene)sulfonyl]phenyl}-1-(pyridin-3-ylmethyl)urea], the half-inhibitory concentration (IC50) came to 3.9 nM in assay [1] and 28.3 nM in assay [2] (Homo sapiens, A2780, 72 h).

Consider `O=C(NCc1cccnc1)Nc1ccc(S(=O)(=O)c2cncc3ccccc23)cc1` [1-[4-(isoquinoline-4-sulfonyl)phenyl]-3-(pyridin-3-ylmethyl)urea], for which the half-inhibitory concentration (IC50) in assay [1] turned out to be 1.4 nM; in assay [2] (Homo sapiens, A2780, 72 h), 8.3 nM.

With `Cc1cccc(NS(=O)(=O)c2ccc(NC(=O)NCc3cccnc3)cc2)c1C` [3-{4-[(2,3-dimethylphenyl)sulfamoyl]phenyl}-1-(pyridin-3-ylmethyl)urea], the IC50 in assay [1] amounted to 0.9 nM; in assay [2] (Homo sapiens, A2780, 72 h), 74 nM.

Turning to `O=C(NCc1cccnc1)Nc1ccc(S(=O)(=O)c2cccc3c2oc2ccccc23)cc1` [1-(4-{8-oxatricyclo[7.4.0.0^2,^7]trideca-1(9),2(7),3,5,10,12-hexaene-6-sulfonyl}phenyl)-3-(pyridin-3-ylmethyl)urea], the half-maximal inhibitory concentration (IC50) was 2 nM in assay [1] and 3 nM in assay [2].

Regarding `Cc1ccc(S(=O)(=O)c2ccc(NC(=O)NCc3cccnc3)cc2)c(C)c1` [3-{4-[(2,4-dimethylbenzene)sulfonyl]phenyl}-1-(pyridin-3-ylmethyl)urea], the concentration for half-maximal inhibition (IC50) stood at 18 nM in assay [1] and 967 nM in assay [2] (Homo sapiens, A2780, 72 h).

Regarding `CC(C)NC(=O)c1cc(S(=O)(=O)c2ccc(NC(=O)NCc3cccnc3)cc2)ccc1F` [2-fluoro-N-(propan-2-yl)-5-[(4-{[(pyridin-3-ylmethyl)carbamoyl]amino}benzene)sulfonyl]benzamide], the IC50 is 20.9 nM in assay [1] and 100 to 1000 nM in assay [2] (Homo sapiens, A2780, 72 h).

For the molecule `COc1ccc(C(C)C)cc1S(=O)(=O)c1ccc(NC(=O)NCc2cccnc2)cc1` [3-(4-{[2-methoxy-5-(propan-2-yl)benzene]sulfonyl}phenyl)-1-(pyridin-3-ylmethyl)urea], the IC50 in assay [1] stood at 3 nM; in assay [2] (Homo sapiens, A2780, 72 h) it was 31 nM.

With `CCOc1ccc(NS(=O)(=O)c2ccc(NC(=O)NCc3cccnc3)cc2)c(F)c1` [3-{4-[(4-ethoxy-2-fluorophenyl)sulfamoyl]phenyl}-1-(pyridin-3-ylmethyl)urea], the 50% inhibitory concentration (IC50) in assay [1] is 4 nM; in assay [2] (Homo sapiens, A2780, 72 h) it was 157 nM.

As for `COc1cc(F)cc(S(=O)(=O)c2ccc(NC(=O)NCc3cccnc3)cc2)c1` [3-{4-[(3-fluoro-5-methoxybenzene)sulfonyl]phenyl}-1-(pyridin-3-ylmethyl)urea], the IC50 in assay [1] was 1.7 nM; in assay [2] (Homo sapiens, A2780, 72 h), 100 to 1000 nM.

As to `Cc1ccc(Cl)cc1N1CCN(S(=O)(=O)c2ccc(NC(=O)NCc3cccnc3)cc2)CC1` [3-{4-[4-(5-chloro-2-methylphenyl)piperazine-1-sulfonyl]phenyl}-1-(pyridin-3-ylmethyl)urea], the 50% inhibitory concentration (IC50) amounted to 2 nM in assay [1] and 162 nM in assay [2] (Homo sapiens, A2780, 72 h).

`Cc1ccc(F)cc1S(=O)(=O)c1ccc(NC(=O)NCc2cccnc2)cc1` [3-{4-[(5-fluoro-2-methylbenzene)sulfonyl]phenyl}-1-(pyridin-3-ylmethyl)urea]: the IC50 was determined as 4 nM in assay [1] and 489 nM in assay [2] (Homo sapiens, A2780, 72 h).

For `O=C(Nc1nc(-c2cccnc2)cs1)c1ccc(S(=O)(=O)N2CCc3ccccc3C2)cc1` [N-[4-(pyridin-3-yl)-1,3-thiazol-2-yl]-4-(1,2,3,4-tetrahydroisoquinoline-2-sulfonyl)benzamide], the IC50 in assay [1] was determined as 11100 nM; in assay [2] (Homo sapiens, A2780, 72 h), 2620 nM.

For the origin of these results see patent US11279687B2, “Compounds and compositions for the inhibition of NAMPT” (Valo Health, Inc., priority 2010, dated 2022).
